Converted amounts (≈) assume the structure as drawn. Where two headings read alike, the source gives them in different places.
Legend:
souris = experiment: Acute toxicity (mortality, LD50) in mice; format: in vivo; settings: mouse
[1] = tested on: rat soumis à une surcharge hydrique; experiment: Diuretic activity in rats given a water overload, oral; format: in vivo; settings: rat, water overload, oral
Outline: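 Oral dosing (5–80 mg/kg) to rats under water overload, or to rats and mice under saline overload. Urine volume and excreted sodium and potassium measured over 6 h, expressed as change versus control animals; Na/K ratio also derived.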

[2] = tested on: rat Wistar soumis à une surcharge saline; experiment: Diuretic activity in selected Wistar rats given a saline overload (modified Wiebelhaus test); format: in vivo
Outline: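 Selected Wistar rats under saline overload (modified Wiebelhaus test) received compound at 20 mg/kg. Urine volume and sodium excretion were measured over 6 h, expressed as % increase, with Na/K ratio also assessed.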

[3] = tested on: oedème induit par l'injection intraplantaire de carragénine chez le rat; experiment: Anti-inflammatory activity: carrageenan paw oedema in rats; format: in vivo; settings: oral 1 h before carrageenan, measured 3 h after, dose 10b mg/kg [sic]
Protocol: L'activité antiinflammatoire a été déterminée chez le rat par la mesure de l'inhibition de l'oedème induit par l'injection intraplantaire de 0,1 ml d'une suspension à 1% de carragénine chez le rat. Les produits à tester sont administrés par voie orale lh avant l'injection de carragénine et la mesure est réalisée 3h après cette injection. Les COR3789, COR3792, COR4003, COR4008 et COR4010 administrés à 10b mg/kg entrainent respectivement 43, 42, 41, 38 et 39% d'inhibition. Administré à 200 mg/kg, le COR3773 entraine 53% d'inhibition. L'aspirine administrée dans les mêmes conditions à 150 mg/kg entraine 40% d'inhibition de l'oedème.

[4] = tested on: poumon de cobaye isolé perfusé; experiment: Bronchodilator activity: isolated perfused guinea pig lung contracted by methacholine; settings: flow of Tyrode solution, lung contracted by 0,05 microg/ml methacholine; read-out: concentration qui augmente ce débit de 50%
[5] = tested on: segments d'iléon de cobaye isolés; experiment: Anticholinergic activity: acetylcholine-induced contractions of isolated guinea pig ileum; settings: Cavia porcellus; contractions induced by 0,1 microg/ml acetylcholine; read-out: concentration qui inhibe ces contractions de 80%
Source text: L'activité anticholinergique a été appréciée par la mesure des contractions induites par 0,1 microg/ml d'acétylcholine sur des segments d'iléon de cobaye isolés. Les COR3760, COR3789, COR3792, COR4003, COR4008, COR4010, COR4014 utilisés respectivement aux concentrations de 50, 25, 25, 50, 25, 10, 25 microg/ml inhibent ces contractions de 80%.

[6] = biological target: oreillettes droites de cobaye (Cavia porcellus, UniProt P47747); experiment: Anti-H2 activity: histamine-induced chronotropic effect on unstimulated guinea pig right atria
[7] = tested on: segments isolés d'iléon de cobaye; experiment: Antihistamine activity: histamine-induced contraction of isolated guinea pig ileum; settings: 50 microg/ml, response induced by 0,5 microg/ml histamine
Source text: L'activité antihistaminique a été appréciée in vitro par l'inhibition de la réponse contractile de segments isolés d'iléon de cobaye induite par 0,5 microg/ml d'histamine.

oreillettes droites de cobaye, sequence (P47747 whole entry): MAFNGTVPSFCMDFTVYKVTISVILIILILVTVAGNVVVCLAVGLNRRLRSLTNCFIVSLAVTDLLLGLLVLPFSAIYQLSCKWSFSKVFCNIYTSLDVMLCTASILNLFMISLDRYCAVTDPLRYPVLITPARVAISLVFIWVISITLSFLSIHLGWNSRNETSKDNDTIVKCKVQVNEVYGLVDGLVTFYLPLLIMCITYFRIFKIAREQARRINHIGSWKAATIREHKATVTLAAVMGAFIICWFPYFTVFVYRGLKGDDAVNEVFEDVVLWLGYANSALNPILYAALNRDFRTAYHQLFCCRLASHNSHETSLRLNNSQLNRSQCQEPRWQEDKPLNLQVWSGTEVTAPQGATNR

In the case of `CCC(NC)=C1C(=O)c2ccccc2C1=O` [COR4003, (Méthylamino-1 propylidényl)-2 indanedione-1,3], the mortalité (souris; intraperitoneal, 200 mg/kg) is reported as “aucune mortalité”, the mortalité (souris; oral, 300 mg/kg) is reported as “aucune mortalité” and the “facteur multipliant l'excrétion sodique” value ([1]; 10 mg/kg) is reported as 2,4. The response vs control in vivo at 20 mg/kg ([1]; 20 mg/kg, read-out: facteur multipliant l'excrétion urinaire du sodium) was 720%, the change in vivo at 20 mg/kg ([2]; 6 h, read-out: augmentation de l'excrétion urinaire volumétrique mesurée au bout de 6 heures) was 56% and the change in vivo at 20 mg/kg ([2]; read-out: augmentation de l'excrétion urinaire du sodium) was 56%. For the same compound, the “inhibition de l'oedème” value [3] was 41%, the EC50 [4] was 10 µg/mL (≈ 46.5 µM) and the IC80 [5] was 50 µg/mL (≈ 232 µM). The “effet chronotrope négatif intrinsèque” value ([6]; at the concentration inhibiting the histamine effect by 50 % (COR4003 100, COR4011 50 microg/ml)) was “ne présentant pas d'effet chronotrope négatif intrinsèque”, the IC50 ([6]; chronotropic effect induced by 5 microg/ml histamine, read-out: concentration qui inhibe de 50 % cet effet chronotrope (converted)) was 465 µM and the “inhibition de la réponse contractile” value [7] was “inhibe cette réponse”.
